Data reported in patent US20160250142A1, “INHALED AEROSOLIZED IMMUNO-CHEMOTHERAPY FOR THE TREATEMENT OF MDR TB” (priority 2013, published 2016).
Where “and” joins values, the source holds several entries; their conditions need not be identical. Equal values may be shown once. Read-outs that look alike come from different tables or passages of the source.

Legend:
[1] = Plasma and lung drug levels in mice after MicroSprayer endotracheal delivery (LC/MS/MS); settings: for concentration at 1 h / concentration at 8 h: female, C57BL/6, mouse; for Lung levels compared to plasma levels / Plasma and lung levels 8 hours post dose compared to 1 hour post dose: endotracheal delivery; for Lung Levels: 8 hour (Range): Table 14 summary, dose delivered 240/150/50 μg in 100 μL
Method: Observations were taken at 1 and 8 hour time points within lung tissue as well as the plasma of individual animals.
For microsprayer dosing via endotracheal administration, mice were anesthetized by Ketamine/Xylazine (K/X) sedation (50 mg/kg Ketamine and 5 mg/kg Xylazine) administered intraperitoneally (IP). […] A Bair Hugger warm air unit was used to keep animals warm during recovery from K/X anesthesia (i.e. after dosing).
On Day 0, mice were endotracheally intubated with a MicroSprayer® Aerosolizer (Penn-Century™, Inc.; Wyndmoor, Pa.) and test articles were delivered in the airways at a dose volume of 100 μL/dose at various dose levels.
Animals were used for collection of blood samples and the entire lung for plasma and drug level determinations. Each mouse was anesthetized with CO2/O2 and terminally bled via retro-orbital into tubes containing K2EDTA. Upon collection each blood sample was mixed by gentle inversion, placed on ice, and subsequently centrifuged to separate plasma. Plasma samples were processed on the day they were collected, or were snap frozen using liquid nitrogen and stored frozen (at or below −70° C.) until analyzed.
Animals in Subgroup A were used for collection of blood samples for plasma drug level determinations at the 1 hour post dose time point following Day 0 dosing; samples were collected within ±3% of target time. Animals in Subgroup B were used for collection of blood samples for plasma drug level determinations at the 8 hour post dose time point following Day 0 dosing; samples were collected within ±3% of target time (Table 8).
Immediately following each subgroups blood collection time point, each animal was euthanized using CO2 and the entire lung was collected for tissue drug level determinations (within 15 minutes after the blood sample), weighed, and snap-frozen. Lung samples were snap frozen using liquid nitrogen or dry ice and stored frozen (at or below −70° C.) until analyzed. […] Animals in Groups 1-3 had aerosol content (ng/mL), plasma content (ng/mL) and lung level (ng/g) assessed for parent using an appropriate LC/MS/MS method.

[2] = NGI impactor test of nebulized respiratory solutions (aerosol particle size); assay type: physicochemical; settings: fractions by HPLC
Method: FIG. 1. Graphical representation of the NGI impactor test for Metronidazole respiratory solution (8 mg/mL).
FIG. 2. Graphical representation of the NGI impactor test for Amikacin respiratory solution (200 mg/mL).
FIG. 3. Graphical representation of the NGI impactor test for Levofloxacin respiratory solution (250 mg/mL).
The nebulization drug formulations were nebulized and passed through an NGI impactor (Westech Corporation). These experiments show the fraction of drug in various stages of the impactor (FIGS. 1-3). It was shown that significant amounts of the drug compounds were obtained at the different stages, which corresponds to the respirable fraction that would be deposited in the lungs. The drug fractions were analyzed by HPLC.

[3] = assay type: in vivo, female C57BL/6 mice; settings: number of animals
Method: Detailed observations were recorded prior to dosing and prior to euthanasia.
All animals survived to their scheduled euthanasia time point on Day 0 (1 hour or 8 hours post dosing). All animals were normal (no clinical abnormalities) prior to dosing on Day 0 and prior to euthanasia 1 hour or 8 hours post dosing.

[4] = tested on: TB (Mycobacterium tuberculosis); settings: reported for reference only; metronidazole MIC not established for TB; cited from earlier work
[5] = Human IFN-γ levels in mouse lung and plasma after aerosol delivery (ELISA); assay type: in vivo, female C57BL/6 mice; settings: for IFN-g Level in mouse plasma: plasma diluted 1:2, ELISA sensitivity <2 pg/mL; for IFN-g Level in lung homogenate: mouse lung homogenized in 10 mL buffer; for IFN-g Level in lung homogenate / ng of IFN-g per gm of tissue: individual animals; for ng of IFN-g per gm of tissue / ng of IFN-g per gm of tissue, Mean: mouse lung; for ng of IFN-g per gm of tissue, Mean: mean of 3
Method: Actimmune® (IFN-γ; Interferon gamma-1b) was diluted in the dilution solution excipient as per manufacturer's directions. The contents of one (1) vial (100 μg/0.5 mL) were gently diluted to a final volume of 700 mL using the dilution solution excipient. This represented a 1:1400 dilution. Test articles A-C were supplied in a ready to use form and no additional formulations were required. All residual test articles were stored at room temperature (15-30° C.) or refrigerated (2-8° C.).

[6] = lung, Lung levels 1 hour post dose (range), mice, endotracheal MicroSprayer, Subgroup A
[7] = lung, Lung levels 8 hour post dose (range), mice, endotracheal MicroSprayer, Subgroup B
[8] = plasma, Plasma levels 1 hour post dose (range), mice, endotracheal MicroSprayer, Subgroup A, 3 animals
[9] = plasma, Plasma levels 8 hour post dose (range), mice, endotracheal MicroSprayer, Subgroup B, 3 animals
[10] = mice, IT, 1 hr, individual animals
[11] = mice, IT, 1 hr, individual animals, nominal dose 0.48/0.3/0.1 mg/animal (delivered about 50%)
[12] = mice, IT, 8 hr, individual animals
[13] = mice, IT, 8 hr, individual animals, nominal dose 0.48/0.3/0.1 mg/animal
[14] = lung, Lung Concentration (μg/g) of Tissue, mice, IT, 1 hr, individual animals
[15] = lung, Lung Concentration, mice, IT, 1 hr, individual animals
[16] = plasma, Plasma Concentration, mice, IT, 1 hr, individual animals, nominal dose 0.48/0.3/0.1 mg/animal (delivered about 50%)
[17] = plasma, Plasma Concentration, mice, IT, 8 hr, individual animals, nominal dose 0.48/0.3/0.1 mg/animal
[18] = mice, endotracheal MicroSprayer, Subgroup B, 3 animals

Molecule | concentration at 1 h [1, 6] | concentration at 8 h [1, 7] | concentration at 1 h [1, 8] | concentration at 8 h [1, 9] | Lung Concentration [1, 10] | Lung Concentration (μg/g) of Tissue [1, 10] | Plasma Concentration [1, 11] | Lung Concentration [1, 12] | Plasma Concentration [1, 13] | Lung levels compared to plasma levels ([1]; mice) | Plasma and lung levels 8 hours post dose compared to 1 hour post dose ([1]; mice) | Droplets produced on nebulization [2] | ANIMALS ALIVE ([3]; Day 0, 1 hr post dose) | ANIMALS NORMAL ([3]; Day 0, 1 hr post dose) | ANIMALS ALIVE ([3]; Day 0, 8 hr post dose) | ANIMALS NORMAL ([3]; Day 0, 8 hr post dose) | Reported MIC [4] | Lung Levels: 8 hour (Range) [1] | concentration at 1 h [1, 14] | concentration at 1 h [1, 15] | further results
NCC[C@H](O)C(=O)N[C@@H]1C[C@H](N)[C@@H](O[C@H]2O[C@H](CN)[C@@H](O)[C@H](O)[C@H]2O)[C@H](O)[C@H]1O[C@H]1O[C@H](CO)[C@@H](O)[C@H](N)[C@H]1O [Amikacin] | 3990 to 9480 ng/g | 351 to 3060 ng/g | 2300 to 7140 ng/mL | 152 to 406 ng/mL | 4830 ng/g and 9480 ng/g and 3990 ng/g | 33.6 µg/g and 64.9 µg/g and 27.0 µg/g | 7140 ng/mL and 4820 ng/mL and 2300 ng/mL | 3060 ng/g and 443 ng/g and 351 ng/g | 406 ng/mL and 156 ng/mL and 152 ng/mL | higher | decreased | droplets in the respirable range | 6 | 3 | 3 | 3 | 0.5 μg/mL (500 ng/mL) | – | – | – | Lung Concentration (μg/g) of Tissue [1, 12]: 19.0 µg/g and 3.05 µg/g and 1.99 µg/g
C[C@H]1COc2c(N3CCN(C)CC3)c(F)cc3c(=O)c(C(=O)O)cn1c23 [Levofloxacin] | 1610 to 2270 ng/g | 1200 ng/g | 534 to 815 ng/mL | 53 ng/mL | 2270 ng/g and 1610 ng/g | 16.9 µg/g and 10.4 µg/g | 815 ng/mL and 534 ng/mL | BQL | BQL | increased | decreased | – | 6 | 3 | 3 | 3 | – | 7590 ng/g - ng/g of lung tissue | 13800 ng/g | 2140 ng/g | concentration at 8 h ([1]; lung, Lung Concentration (μg/g) of Tissue, mice, IT, 8 hr, individual animals): 7560 ng/g; concentration at 8 h ([1]; lung, Lung Concentration, mice, IT, 8 hr, individual animals): 1200 ng/g; concentration at 1 h [1, 16]: 556 ng/mL; concentration at 8 h [1, 17]: 53 ng/mL; Plasma levels 8 hour post dose (range) [1, 18]: 53.0 ng/mL; Plasma levels 8 hour post dose (range) ([1]; mice, endotracheal MicroSprayer, Subgroup B, 3 animals, listed as LEVOFLOXACIN): 53 ng/mL -
Cc1ncc([N+](=O)[O-])n1CCO [Metronidazole] | 1070 to 1640 ng/g | – | 1670 to 2290 ng/mL | 42.3 ng/mL | 1070 ng/g and 1270 ng/g | 6.50 µg/g and 8.27 µg/g | 1670 ng/mL and 1880 ng/mL | BQL | BQL | increased | decreased | droplets in the respirable range | 6 | 3 | 3 | 3 | 250 μg/mL in (250,000 ng/mL) | Not detected | 11700 ng/g | 1640 ng/g | concentration at 1 h [1, 16]: 2290 ng/mL; concentration at 8 h [1, 17]: 42.3 ng/mL; Lung levels 8 hour post dose (range) ([1]; mice, endotracheal MicroSprayer, Subgroup B): not detectable; Plasma levels 8 hour post dose (range) [1, 18]: 42.3 ng/mL -
Actimmune: Actimmune® (IFN-γ; Interferon gamma-1b), 100 μg/0.5 mL vial diluted 1:1400 (protein, UniProt P01579 24-161, looked up) Interferon gamma: QDPYVKEAENLKKYFNAGHSDVADNGTLFLGILKNWKEESDRKIMQSQIVSFYFKLFKNFKDDQSIQKSVETIKEDMNVKFFNSNKKKRDDFEKLTNYSVTDLNVQRKAIHELIQVMAELSPAAKTGKRKRSQMLFRG | – | – | – | – | – | – | – | – | – | – | – | – | 6 | 3 | 3 | 3 | – | – | – | – | IFN-g Level in mouse plasma ([5]; 1 hr post dose): not detectable and below detectable levels (BDL) and BDL^a and BDL; IFN-g Level in mouse plasma ([5]; 1 hr post dose, listed as INTERFERON-gamma): Not Detectable; IFN-g Level in mouse plasma ([5]; 8 hr post dose): not detectable and below detectable levels (BDL) and BDL; IFN-g Level in mouse plasma ([5]; 8 hr post dose, listed as INTERFERON-gamma): Not Detectable; Plasma and lung levels 8 hours post dose compared to 1 hour post dose ([5]; mice, endotracheal delivery): decreased; IFN-g Level in lung homogenate ([5]; 1 hr post dose): 1732.7 pg/mL and 1248.4 pg/mL and 1109.4 pg/mL; IFN-g Level in lung homogenate ([5]; 8 hr post dose): 1006.2 pg/mL and 1578.0 pg/mL and 1307.7 pg/mL; ng of IFN-g per gm of tissue ([5]; 1 hr post dose): 116.8 ng per gm of tissue and 87.9 ng per gm of tissue and 75.4 ng per gm of tissue; ng of IFN-g per gm of tissue, Mean ([5]; 1 hr post dose): 93.3 ng per gm of tissue; ng of IFN-g per gm of tissue ([5]; 8 hr post dose): 58.3 ng per gm of tissue and 72.2 ng per gm of tissue and 102.6 ng per gm of tissue; ng of IFN-g per gm of tissue, Mean ([5]; 8 hr post dose): 77.7 ng per gm of tissue
